Source: ChEMBL document CHEMBL4000212, “New furoxan derivatives for the treatment of ocular hypertension” (Bioorg Med Chem Lett, 2017)

What was measured:
[1] = n-Octanol-water distribution coefficient, log D of the compound at pH 7.4 after 20 mins by UV-spectrometric based shake-flask method; format: physicochemical
[2] = Induction of NO release assessed as nitrite formation at 0.1 mM in phosphate buffer saline at pH 7.4 in presence of 5 mM L-cysteine measured after 1 hr by Griess assay
[3] = Ionization constant of the compound assessed as ionization level by potentiometric titration; format: physicochemical
Oryctolagus cuniculus [4] = assay: Antiglaucoma activity in hypertonic saline-induced New Zealand white rabbit transient ocular hypertensive model assessed as IOP lowering efficacy at 30 uL administered topically immediately after hypertonic saline injection measured at 120 mins post dose; format: functional
[5] = Solubility of the compound in water at 5 mg incubated in magnetic stirrer for 1 hr; format: physicochemical
[6] = Ionization constant, pKa of the compound by potentiometric titration; format: physicochemical
[7] = Induction of NO release assessed as nitrite formation at 0.1 mM in phosphate buffer saline at pH 7.4 in absence of L-cysteine measured after 1 hr by Griess assay
[8] = Solubility in pH 6 phosphate buffer /5% cremophor EL/0.3% DMSO/0.2 mg/ml bac solution at 10 mg incubated in magnetic stirrer for 1 hr; format: physicochemical; conditions: pH 6, 1 h
Oryctolagus cuniculus [9] = assay: Antiglaucoma activity in hypertonic saline-induced New Zealand white rabbit transient ocular hypertensive model assessed as IOP lowering efficacy at 30 uL administered topically immediately after hypertonic saline injection measured at 60 mins post dose; format: functional
[10] = Induction of NO release assessed as nitrite formation at 0.1 mM in phosphate buffer saline at pH 7.4 in presence of 0.5 mM L-cysteine measured after 1 hr by Griess assay
Oryctolagus cuniculus [11] = assay: Antiglaucoma activity in hypertonic saline-induced New Zealand white rabbit transient ocular hypertensive model assessed as IOP lowering efficacy at 0.5% administered topically immediately after hypertonic saline injection measured at 120 mins post dose; format: functional
Oryctolagus cuniculus [12] = assay: Antiglaucoma activity in hypertonic saline-induced New Zealand white rabbit transient ocular hypertensive model assessed as IOP lowering efficacy at 0.5% administered topically immediately after hypertonic saline injection measured at 60 mins post dose; format: functional
Oryctolagus cuniculus [13] = assay: Antiglaucoma activity in hypertonic saline-induced New Zealand white rabbit transient ocular hypertensive model assessed as IOP lowering efficacy at 30 uL administered topically immediately after hypertonic saline injection measured at 30 mins post dose; format: functional
Oryctolagus cuniculus [14] = assay: Antiglaucoma activity in hypertonic saline-induced New Zealand white rabbit transient ocular hypertensive model assessed as IOP lowering efficacy at 30 uL administered topically immediately after hypertonic saline injection measured at 240 mins post dose; format: functional

| Structure (SMILES) | logD at 20 min [1] | Activity [2] [%] | Activity [3] [%] | Activity (Oryctolagus cuniculus [4]) [mmHg] | solubility at 1 h [5] [mg/mL] | pKa [6] | Activity [7] [%] | solubility [8] | Activity (Oryctolagus cuniculus [9]) [mmHg] | Activity [10] [%] | Activity (Oryctolagus cuniculus [11]) [mmHg] | Activity (Oryctolagus cuniculus [12]) [mmHg] | Activity (Oryctolagus cuniculus [13]) [mmHg] | Activity (Oryctolagus cuniculus [14]) [mmHg] |
| --- | --- | --- | --- | --- | --- | --- | --- | --- | --- | --- | --- | --- | --- | --- |
| CN(C)Cc1no[n+]([O-])c1C(N)=O | -0.03 | 12.8 | 12.9 | -8.6 | > 30 | 6.57 | 0 | Soluble | -12 | 1.4 | – | – | – | – |
| CCN(CC)Cc1no[n+]([O-])c1C#N.O=C(O)C(=O)O | 1.98 | 41.3 | 2.5 | -4.8 | > 30 | 5.8 | 0 | Soluble | -8.9 | 15.5 | – | – | – | – |
| Cc1c(OCCN)no[n+]1[O-].O=C(O)C(=O)O | -1.54 | < 1 | 95.2 | -8.8 | > 30 | 8.7 | 0 | Soluble | -11.9 | 0 | – | – | – | – |
| N#Cc1c(CN2CCN(c3ncccn3)CC2)no[n+]1[O-] | 0.97 | 41.5 | 0.9 | – | < 0.5 | 2 to 5.38 | 0 | Insoluble | – | 14.4 | – | – | – | – |
| CC(C)N(Cc1no[n+]([O-])c1C(N)=O)C(C)C | 1.4 | 11.6 | 14.2 | – | < 0.5 | 6.62 | 0 | Insoluble | – | 1.2 | – | – | – | – |
| CCN(C)Cc1no[n+]([O-])c1C#N.O=C(O)C(=O)O | 1.31 | 40.9 | 2.4 | – | > 30 | 5.79 | 0 | Soluble | – | 17.5 | – | – | – | – |
| Cc1c(OCCN(C)C)no[n+]1[O-].O=C(O)C(=O)O | -0.28 | < 1 | 76 | -9 | > 30 | 7.9 | 0 | Soluble | -14 | 0 | – | – | – | – |
| CCOC(=O)/N=c1\c[n+](N2CCOCC2)[n-]o1 | – | – | – | -8.17 | – | – | – | – | -7.83 | – | – | – | – | – |
| CC(C)N(Cc1no[n+]([O-])c1C#N)C(C)C.CS(=O)(=O)O | 2.35 | 41.9 | 0.9 | – | > 30 | 5.35 | 0 | Soluble | – | 16.5 | – | – | – | – |
| CN(C)CCCN(C)Cc1no[n+]([O-])c1C#N.O=C(O)C(F)(F)F | -0.73 | 40.1 | 98.8 | – | > 30 | 3.34 to 9.3 | 0 | Soluble | – | 13.5 | – | – | – | – |
| CC(C)(C)NC[C@H](O)COc1nsnc1N1CCOCC1 [TIMOLOL] | – | – | – | – | – | – | – | – | – | – | -7.33 | -7.17 | – | – |
| NC(=O)c1c(CO)no[n+]1[O-] | -1.48 | 12 | – | -2.9 | > 30 | – | 0 | Soluble | -4.8 | 1.8 | – | – | – | – |
| N#Cc1c(CN2CCC(Br)CC2)no[n+]1[O-].O=C(O)C(=O)O | 2.31 | 40.5 | < 0.1 | – | < 0.5 | 4.01 | 0 | Insoluble | – | 15.9 | – | – | – | – |
| CCCN(CCC)Cc1no[n+]([O-])c1C#N.O=C(O)C(=O)O | 2.74 | 42.3 | 1.1 | -2.8 | 2 | 5.46 | 0 | Soluble | -5.3 | 18.1 | – | – | -8.5 | – |
| N#Cc1c(CN2CCNCC2)no[n+]1[O-].O=C(O)C(F)(F)F | -1.32 | – | 96.3 | -10.6 | > 30 | 2 to 8.81 | 0 | Soluble | -11.5 | 15.4 | – | – | – | – |
| CCN(Cc1ccccc1)Cc1no[n+]([O-])c1C#N.O=C(O)C(=O)O | 2.62 | 41.7 | 1.5 | – | < 0.5 | 5.58 | 0 | Insoluble | – | 16.4 | – | – | – | – |
| CN(C)Cc1no[n+]([O-])c1C#N.O=C(O)C(=O)O | 0.87 | 43.9 | 2.6 | -11.2 | > 30 | 5.82 | 0 | Soluble | -14.4 | 16.1 | – | – | – | -8.6 |
